pIC50: −log10 of the molar value.
Columns and labels:
IDH1 R132H = IDH1 R132H (Homo sapiens, UniProt O75874, R132H); assay: IDH1 R132H enzymatic assay (NADPH depletion coupled to diaphorase/resazurin); assay type: biochemical
IDH1 R132C = IDH1 R132C (Homo sapiens, UniProt O75874, R132C); assay: IDH1 R132C enzymatic assay (NADPH depletion coupled to diaphorase/resazurin); assay type: biochemical
In short: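 NADPH depletion, read via diaphorase/resazurin coupling, after adding substrate at 0.6 mM α-KG and 0.012 mM NADPH. Beforehand, 0.00032 mg/mL enzyme sat with compound 30 min at room temperature in pH 6.5 potassium phosphate buffer with MgCl2, glycerol and BSA.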

[1] = IDH1 R132H enzymatic inhibition, IC50 class
[2] = IDH1 R132C enzymatic inhibition, IC50 class
[3] = enzymatic inhibition, IDH1 R132H
[4] = enzymatic inhibition, IDH1 R132C

IDH1 R132C, sequence (O75874 whole entry R132C): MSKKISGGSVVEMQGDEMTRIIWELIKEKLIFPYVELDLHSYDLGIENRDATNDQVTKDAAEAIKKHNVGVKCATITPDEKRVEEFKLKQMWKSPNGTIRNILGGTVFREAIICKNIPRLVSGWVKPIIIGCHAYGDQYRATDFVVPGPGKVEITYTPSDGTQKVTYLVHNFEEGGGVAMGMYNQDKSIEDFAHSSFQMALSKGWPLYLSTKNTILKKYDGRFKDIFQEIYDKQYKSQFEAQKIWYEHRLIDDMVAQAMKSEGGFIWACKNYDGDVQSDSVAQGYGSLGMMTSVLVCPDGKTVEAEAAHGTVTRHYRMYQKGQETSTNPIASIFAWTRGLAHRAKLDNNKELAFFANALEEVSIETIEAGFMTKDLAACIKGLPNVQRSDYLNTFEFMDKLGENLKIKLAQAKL
IDH1 R132H, sequence (O75874 whole entry R132H): as the sequence (O75874 whole entry R132C) above, with C132H counted along it

Row | SMILES | pIC50 (IDH1 R132H; [1]) | pIC50 (IDH1 R132C; [2]) | pIC50 (IDH1 R132H; [3]) | pIC50 (IDH1 R132C; [4])
1 | CCc1cccc(CC)c1-n1c(CC(C)C)c(C(=O)N2CCNC(CO)C2)cc(-c2nc(-c3ccc(Cl)cc3)cs2)c1=O (stereo not drawn) [Compound 201] | > 6.52 | > 6.52 |  | 
2 | COc1ccc(OC)c(-n2c3c(cc(-c4nc(-c5ccc(Cl)cc5)cs4)c2=O)C(=O)CNC3)c1 [Compound 280] | 4.70 to 5.30 | 4.70 to 5.30 |  | 
3 | CCc1cccc(CC)c1-n1c(C(C)C)c(C(=O)N2CCN[C@@H](CO)C2)cc(-c2nc(-c3ccc(Cl)cc3)cs2)c1=O [Compound 229] | 6.00 to 6.52 | > 6.52 |  | 
4 | CCc1cccc(CC)c1-n1c(C)c(C(=O)N2CCCCC2C(=O)O)cc(-c2nc(-c3ccc(Cl)cc3)cs2)c1=O (stereo not drawn) [Compound 67] | 5.30 to 6.00 | 4.70 to 5.30 |  | 
5 | CCc1ccc(OC)cc1-n1c(C=C(C)C)c(C(=O)N2CCNCC2)cc(-c2nc(-c3ccc(Cl)cc3)cs2)c1=O [Compound 539] |  |  | > 6.52 | > 6.52
6 | CCc1cccc(CC)c1-n1c2c(cc(-c3nc(C4=CCN(C(=O)OC(C)(C)C)CC4)c(C)s3)c1=O)C(=O)CC(C)(C)C2 [Compound 197] | 5.30 to 6.00 | 4.70 to 5.30 |  | 
7 | CCc1cccc(CC)c1-n1c(C)c(C(=O)NCC(N)=O)cc(-c2nc(-c3ccc(Cl)cc3)cs2)c1=O [Compound 260] | 5.30 to 6.00 | 5.30 to 6.00 |  | 
8 | CCc1cccc(CC)c1-n1c(C=C(C)C)c(C(=O)N2CCNCC2CC(C)C)cc(-c2nc(-c3ccc(Cl)cc3)cs2)c1=O (stereo not drawn) [Compound 621] | 6.00 to 6.52 | > 6.52 |  | 
9 | CCc1cccc(CC)c1-n1c(CC(C)C)c(C(=O)N2CCNCC2)cc(-n2cc(-c3ccc(Cl)cc3)cn2)c1=O [Compound 658] | 4.70 to 5.30 | 4.70 to 5.30 |  | 
10 | CC1(C)CC(=O)c2cc(-c3nc(-c4ccc(Cl)cc4)cs3)c(=O)n(-c3ccc(Cl)cc3Cl)c2C1 [Compound 441] |  |  | < 4.70 | 4.70 to 5.30
11 | CCc1cccc(CC)c1-n1c(C)c(C(=O)NCC(C)(C)C)cc(-c2nc(-c3ccc(Cl)cc3)cs2)c1=O [Compound 146] | < 4.70 | 5.30 to 6.00 |  | 
12 | Cc1c(CO)cccc1-n1c2c(cc(-c3nc(-c4ccc(Cl)nc4)cs3)c1=O)C(=O)CCC2 [Compound 486] |  |  | 4.70 to 5.30 | 4.70 to 5.30
13 | CCc1cccc(CC)c1-n1c(C)c(C(=O)NC2CCNCC2)cc(-c2nc(-c3ccc(Cl)cc3)cs2)c1=O [Compound 302] | 6.00 to 6.52 | 6.00 to 6.52 |  | 
14 | CCc1cccc(CC)c1-n1c(CC2CC2)c(C(=O)N2CCNCC2)cc(-c2nc(-c3ccc(Cl)nc3)cs2)c1=O [Compound 492] |  |  | > 6.52 | > 6.52

The next lines start with the values.

Row | pIC50 (IDH1 R132H; [1]) | pIC50 (IDH1 R132C; [2]) | pIC50 (IDH1 R132H; [3]) | pIC50 (IDH1 R132C; [4]) | SMILES
15 | > 6.52 | > 6.52 |  |  | CCc1cccc(CC)c1-n1c(CC(C)C)c(C(=O)N2CCNCC2)cc(-c2nc(-c3ccc(C)cc3)c(C)s2)c1=O [Compound 76]
16 | 4.70 to 5.30 | 6.00 to 6.52 |  |  | CCc1cccc(CC)c1-n1c(C)c(C(=O)N[C@@H]2CCCC[C@@H]2N)cc(-c2nc(-c3ccc(Cl)cc3)cs2)c1=O [Compound 214]
17 |  |  | 4.70 to 5.30 | 4.70 to 5.30 | O=C1CCCc2c1cc(-c1nc(-c3ccc(Cl)cc3)cs1)c(=O)n2-c1cccc(CO)c1 [Compound 565]
18 | 6.00 to 6.52 | 6.00 to 6.52 |  |  | CN(C)c1ccccc1-n1c2c(cc(-c3nc(-c4ccc(Cl)cc4)cs3)c1=O)C(=O)CC(C)(C)C2 [Compound 56]
19 | 5.30 to 6.00 | 6.00 to 6.52 |  |  | CCc1cccc(CC)c1-n1c(CC(C)C)c(C(=O)N[C@@H]2CCC[C@H]2O)cc(-c2nc(-c3ccc(Cl)cc3)cs2)c1=O [Compound 217]
20 |  |  | > 6.52 | > 6.52 | CCc1cccc(CC)c1-n1c(C=C(C)C)c(C(=O)N2CCCNC(=O)C2)cc(-c2nc(-c3ccc(Cl)cc3)cs2)c1=O [Compound 529]
21 |  |  | 6.00 to 6.52 | 6.00 to 6.52 | CCc1cccc(CC)c1-n1c(C(CC)OC)c(C(=O)N2CCNCC2)cc(-c2nc(-c3ccc(Cl)cc3)cs2)c1=O (stereo not drawn) [Compound 456]
22 |  |  | 6.00 to 6.52 | 5.30 to 6.00 | CCc1cccc(CC)c1-n1c(CC(C)C)c(C(=O)N2CCNCC2)cc(-c2nc(-c3ccc(Cl)cc3)c(C(=O)N(C)C)s2)c1=O [Compound 464]
23 |  |  | > 6.52 | > 6.52 | CCc1cccc(CC)c1-n1c(C=C(C)C)c(C(=O)N2CC3(CNC3)C2)cc(-c2nc(-c3ccc(Cl)cc3)cs2)c1=O [Compound 512]
24 | > 6.52 | > 6.52 |  |  | CC(C)=Cc1c(C(=O)N2CCNCC2)cc(-c2nc(-c3ccc(Cl)cc3)cs2)c(=O)n1-c1c(Cl)cccc1Cl [Compound 384]

From US10703746B2, “Mutant IDH1 inhibitors useful for treating cancer” (THE UNITED STATES OF AMERICA, AS REPRESENTED BY THE …, priority 2014, dated 2020)
